# Results reported in ChEMBL document CHEMBL3797102, “Drug trapping in hERG K+ channels: (not) a matter of drug size?” (Medchemcomm, 2016).
# Assays:
# Format in all cases: cell-based
# [1] = molecular target: T1, Voltage-gated inwardly rectifying potassium channel KCNH2 (Homo sapiens, UniProt Q12809); test: Inhibition of wild type human ERG channel expressed in Xenopus laevis oocytes assessed as time taken for use dependent steady state block of K+ current at 150 uM preincubated for 330 secs followed by pulse train at 1 Hz at holding potential -100 mV by two-electrode voltage clamp method
# [2] = molecular target: T1, Voltage-gated inwardly rectifying potassium channel KCNH2; test: Inhibition of wild type human ERG channel expressed in Xenopus laevis oocytes assessed as recovery from channel block after resting period of 300 secs followed by single test pulse at -100 mV holding potential subsequently washed out at 0.3 Hz by two-electrode voltage clamp method; design: scale not given: the % may be the effect or the level left; conditions: 5 min
# hERG (KCNH2), wild type [3] = molecular target: T2, hERG (KCNH2), wild type (Homo sapiens, UniProt Q12809); test: Inhibition of wild type human ERG channel expressed in Xenopus laevis oocytes assessed as use dependent steady state block of +20 mV-induced K+ current at 150 uM preincubated for 330 secs followed by pulse train at 1 Hz by two-electrode voltage clamp method
# [4] = molecular target: hERG (KCNH2) F656A mutant (Homo sapiens, UniProt Q12809, F656A); test: Inhibition of human ERG channel F656A mutant expressed in Xenopus laevis oocytes assessed as use dependent suppression of tail current at 150 uM at -140 mV by two-electrode voltage clamp method
# [5] = molecular target: T1, Voltage-gated inwardly rectifying potassium channel KCNH2; test: Inhibition of wild type human ERG channel expressed in Xenopus laevis oocytes assessed as use dependent steady state block of induced K+ current at 150 uM preincubated for 330 secs followed by pulse train at 1 Hz at holding potential -100 mV by two-electrode voltage clamp method
# [6] = molecular target: hERG (KCNH2) Y652A mutant (Homo sapiens, UniProt Q12809, Y652A); test: Inhibition of human ERG channel Y652A mutant expressed in Xenopus laevis oocytes assessed as use dependent suppression of K+ current at 150 uM at 1 Hz equilibrated for 5 mins by two-electrode voltage clamp method
# hERG (KCNH2), wild type [7] = molecular target: T2, hERG (KCNH2), wild type; test: Inhibition of wild type human ERG channel expressed in Xenopus laevis oocytes assessed as first current amplitude after resting period of 300 secs followed by single test pulse at -100 mV holding potential by two-electrode voltage clamp method; design: scale not given: the % may be the effect or the level left; conditions: read-out: Activity
# T1 sequence (Q12809 whole entry): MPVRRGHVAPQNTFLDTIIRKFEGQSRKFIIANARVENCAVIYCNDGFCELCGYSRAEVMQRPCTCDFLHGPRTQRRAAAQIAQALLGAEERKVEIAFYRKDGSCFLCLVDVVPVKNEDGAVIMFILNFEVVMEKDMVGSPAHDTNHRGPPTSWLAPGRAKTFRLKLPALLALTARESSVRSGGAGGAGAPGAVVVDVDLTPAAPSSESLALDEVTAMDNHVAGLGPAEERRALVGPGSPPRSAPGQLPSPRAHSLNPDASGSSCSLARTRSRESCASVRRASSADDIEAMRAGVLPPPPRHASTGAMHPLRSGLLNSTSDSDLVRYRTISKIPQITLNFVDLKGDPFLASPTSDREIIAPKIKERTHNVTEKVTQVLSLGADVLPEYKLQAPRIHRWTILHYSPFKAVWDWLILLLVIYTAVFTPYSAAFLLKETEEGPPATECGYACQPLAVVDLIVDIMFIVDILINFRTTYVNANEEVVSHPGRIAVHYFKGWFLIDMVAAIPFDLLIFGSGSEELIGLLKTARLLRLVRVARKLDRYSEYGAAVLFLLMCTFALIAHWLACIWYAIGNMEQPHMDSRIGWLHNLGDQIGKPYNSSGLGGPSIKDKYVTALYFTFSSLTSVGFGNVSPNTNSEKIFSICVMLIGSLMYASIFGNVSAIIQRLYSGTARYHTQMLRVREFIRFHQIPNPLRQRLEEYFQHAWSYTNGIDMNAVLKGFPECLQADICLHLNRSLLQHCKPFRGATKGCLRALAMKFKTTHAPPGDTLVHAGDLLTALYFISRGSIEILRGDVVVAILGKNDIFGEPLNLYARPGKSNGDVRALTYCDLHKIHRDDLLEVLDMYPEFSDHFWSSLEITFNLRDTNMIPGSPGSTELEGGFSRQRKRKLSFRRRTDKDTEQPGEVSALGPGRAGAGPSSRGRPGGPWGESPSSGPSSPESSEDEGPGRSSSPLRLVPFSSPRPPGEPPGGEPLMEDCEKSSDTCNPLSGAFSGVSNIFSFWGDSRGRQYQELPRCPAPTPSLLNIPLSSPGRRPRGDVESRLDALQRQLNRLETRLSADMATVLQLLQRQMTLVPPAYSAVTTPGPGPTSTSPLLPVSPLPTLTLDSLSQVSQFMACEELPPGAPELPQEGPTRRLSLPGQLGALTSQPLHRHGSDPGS
# T2 sequence (Q12809 whole entry): as above
# hERG (KCNH2) Y652A mutant, sequence (Q12809 whole entry Y652A): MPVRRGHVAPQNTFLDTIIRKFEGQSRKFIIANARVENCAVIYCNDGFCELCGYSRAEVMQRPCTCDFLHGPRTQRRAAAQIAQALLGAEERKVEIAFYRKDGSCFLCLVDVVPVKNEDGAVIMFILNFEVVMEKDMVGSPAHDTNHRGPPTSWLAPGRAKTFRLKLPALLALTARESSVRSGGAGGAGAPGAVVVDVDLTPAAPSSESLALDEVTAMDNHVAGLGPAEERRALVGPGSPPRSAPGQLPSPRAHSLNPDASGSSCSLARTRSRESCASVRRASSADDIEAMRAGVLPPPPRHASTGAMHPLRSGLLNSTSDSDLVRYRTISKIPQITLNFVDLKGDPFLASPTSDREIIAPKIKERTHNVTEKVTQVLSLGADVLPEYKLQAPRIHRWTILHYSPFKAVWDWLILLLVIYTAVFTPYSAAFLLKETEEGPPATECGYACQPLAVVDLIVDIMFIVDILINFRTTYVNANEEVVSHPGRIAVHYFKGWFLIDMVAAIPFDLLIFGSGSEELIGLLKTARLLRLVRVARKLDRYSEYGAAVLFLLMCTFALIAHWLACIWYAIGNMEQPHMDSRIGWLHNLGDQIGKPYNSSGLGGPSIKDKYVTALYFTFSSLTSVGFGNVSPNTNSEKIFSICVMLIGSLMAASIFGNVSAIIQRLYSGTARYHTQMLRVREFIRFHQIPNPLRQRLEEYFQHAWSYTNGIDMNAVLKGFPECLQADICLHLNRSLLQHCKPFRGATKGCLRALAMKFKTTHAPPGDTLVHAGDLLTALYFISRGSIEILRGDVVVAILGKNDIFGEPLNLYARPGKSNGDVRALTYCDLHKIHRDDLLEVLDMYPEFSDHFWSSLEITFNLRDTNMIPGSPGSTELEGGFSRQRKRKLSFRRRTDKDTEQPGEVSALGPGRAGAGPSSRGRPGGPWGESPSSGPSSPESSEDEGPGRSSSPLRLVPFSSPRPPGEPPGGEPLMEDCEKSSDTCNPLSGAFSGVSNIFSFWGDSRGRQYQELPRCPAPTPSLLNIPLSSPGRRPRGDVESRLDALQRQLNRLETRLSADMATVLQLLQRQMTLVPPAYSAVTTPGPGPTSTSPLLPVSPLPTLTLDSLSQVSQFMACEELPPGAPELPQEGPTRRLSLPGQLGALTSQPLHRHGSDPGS
# hERG (KCNH2) F656A mutant, sequence (Q12809 whole entry F656A): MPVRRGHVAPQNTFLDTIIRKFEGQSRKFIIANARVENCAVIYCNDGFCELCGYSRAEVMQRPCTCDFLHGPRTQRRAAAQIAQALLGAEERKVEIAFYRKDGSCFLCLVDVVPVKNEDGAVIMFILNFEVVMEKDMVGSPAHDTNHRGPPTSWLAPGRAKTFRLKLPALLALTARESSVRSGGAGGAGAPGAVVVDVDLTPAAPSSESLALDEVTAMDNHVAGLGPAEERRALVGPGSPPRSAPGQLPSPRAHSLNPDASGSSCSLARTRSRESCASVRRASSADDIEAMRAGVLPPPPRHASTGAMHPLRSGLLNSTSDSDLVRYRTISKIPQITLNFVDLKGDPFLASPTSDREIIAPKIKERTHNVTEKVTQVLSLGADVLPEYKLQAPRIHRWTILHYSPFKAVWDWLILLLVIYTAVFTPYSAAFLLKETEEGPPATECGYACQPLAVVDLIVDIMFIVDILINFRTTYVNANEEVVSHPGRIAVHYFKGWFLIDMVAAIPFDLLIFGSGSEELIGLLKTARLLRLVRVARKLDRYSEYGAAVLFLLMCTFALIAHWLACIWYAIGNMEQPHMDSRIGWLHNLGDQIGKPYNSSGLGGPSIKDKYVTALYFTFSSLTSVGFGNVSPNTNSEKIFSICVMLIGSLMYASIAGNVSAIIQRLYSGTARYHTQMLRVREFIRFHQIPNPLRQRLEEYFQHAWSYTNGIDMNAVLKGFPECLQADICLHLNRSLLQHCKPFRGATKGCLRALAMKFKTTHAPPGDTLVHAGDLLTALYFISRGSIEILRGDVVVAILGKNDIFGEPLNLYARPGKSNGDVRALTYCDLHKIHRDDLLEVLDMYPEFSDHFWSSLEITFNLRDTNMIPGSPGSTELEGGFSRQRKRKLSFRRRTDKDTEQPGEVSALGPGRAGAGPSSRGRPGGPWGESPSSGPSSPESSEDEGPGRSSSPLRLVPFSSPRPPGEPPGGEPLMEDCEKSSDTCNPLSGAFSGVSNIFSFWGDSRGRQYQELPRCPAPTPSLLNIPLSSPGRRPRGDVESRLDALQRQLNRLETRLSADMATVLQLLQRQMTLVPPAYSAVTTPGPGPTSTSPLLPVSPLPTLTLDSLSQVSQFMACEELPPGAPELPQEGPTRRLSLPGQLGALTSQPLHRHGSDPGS
compound,measurement,setting,value
O=C(CCc1ccccc1)c1ccccc1OCC(O)CN1CCN(C(c2ccccc2)(c2ccccc2)c2ccccc2)CC1 (configuration not stated),Time,[1],15 s
same,Activity,[2],47.5%
same,"inhibition at 330 s, 150 µM","hERG (KCNH2), wild type [3]",69%
same,inhibition at 150 µM,[4],18.3%
same,inhibition (INH),[5],Active
same,"inhibition at 5 min, 150 µM",[6],13.2%
same,activity at 5 min,"hERG (KCNH2), wild type [7]",< 1%
